According to patent publication US20100317671A1, “XANTHINE-BASED CYCLIC GMP-ENHANCING RHO-KINASE INHIBITOR INHIBITS PHYSIOLOGICAL ACTIVITIES OF LUNG EPITHELIAL CELL LINE” (KAOHSIUNG MEDICAL UNIVERSITY, priority 2008, published 2010):

Experiments:
[1] = test system: inflammatory cells in the lung lavage; assay: Inflammatory cells in lung lavage, bleomycin-induced IPF mice; type: in vivo; parameters: WBC total (white blood cell total count) / NE (neutrophil) / LY (lymphocyte) / MO (monocyte) / EO (eosinophil) / BA (basophil): unit not given here; conditions: for Amount of WBC in lung lavage: lung inflammatory stage; for BA (basophil) / EO (eosinophil) / LY (lymphocyte) / MO (monocyte) / NE (neutrophil) / WBC total (white blood cell total count): lung lavage
Experimental: The amounts of the total cell, the neutrophill, the lymphocyte, the monocyte, the eosinophill and the basophill are analyzed by an automatic animal blood cell analyzer for evaluating the extent of the inflammation. […] The mice are euthanatized by administering the Urathane in a dose of 37.5 mg/10 g. The larynx is opened, the trachea is picked out, cut and held by a forcepts and a 0.58 mm PE tube is slowly inserted the trachea for infusing 0.5 ml PBS. The PBS is incubated for 15 seconds and then collected after gently massaging the lung tissue. 1 c.c. lung lavage is obtained after the above steps are repeated twice. The lung lavage is collected and transferred into a centrifuged tube for centrifuging at 1,200 rpm at 4° C. for 6 mins. The supernatant is collected and stored at −80° C. for zymography, and the pellet is suspended in PBS for calculating the WBC count. The pellet of the alveolar lavage is suspended in PBS and transferred into an eppendorff. The amount and kind of the inflammatory cell such as WBC total, the lymphocyte, the monocyte, the neutrophil, the eosinophil and the basophil are analyzed by an automatic animal blood cell analyzer.

Smad 3 = assay: Smad3 expression by western blotting, bleomycin mice; type: in vivo; conditions: lung fibrotic stage
Experimental: (§1) At day 28, it is observed that expression of eNOS is decreased, the expressions of TGF-β, Smad 3 and HMGB1 are increased and there is significant collagen accumulation in the tissue sections.
(§2) The TGF-β (FIG. 12), CTGF (FIG. 13) and Smad3/p-Smad3 (FIG. 14) protein expressions in the lung tissue are analyzed by western blotting.
(§3) (1) The mice lung is immersed in the tissue lysis buffer and homogenized by an ultrasound sonicator on ice.
(§4) (2) The lysate is centrifuged at 13,000 g under 4° C. for 30 mins. The supernatant is collected and the protein concentration measurement adopts the“Bio-Rad DC protein assay”. After diluting the protein as specific concentrations, the sample buffer being one fourth of the sample volume is added thereinto for heating at 100° C. for 5 mins, and the sample is loaded into each wells of SDS-PAGE gel in turn. The running buffer is added into the electrophoresis tank for electrophoresis at 100 V, the voltage is adjusted as 200 V when the protein runs to the lower gel, and the electrophoresis is stopped when the SDS-PAGE dye enters the SDS-PAGE.
(§5) (3) The PVDF membrane is rinsed ith transfer buffer for use, and the protein on the SDS-PAGE is transferred to the PVDF membrane. The SDS-PAGE layer covering on the PVDF membrane is placed in a protein transfer tank immersed with the transfer buffer with the current set at 100V. […]

MMP-9 [2] = assay: Western blotting of lung tissue, bleomycin mice; type: in vivo; conditions: increased by bleomycin; p<0.01
Experimental: (§6) The lung tissue is analyzed by western blotting, and the MMP-2 and MMP-9 protein expressions are shown in both of the FIGS. 9 and 10. In the lung tissue, the MMP-2 expression is more significant than MMP-9. KMUP-1 and KMUP-5 may mitigate the expressions of MMP-2 and MMP-9 increased by administrating the bleomycin (p<0.01).
as §3, §4
(§7) (3) The PVDF membrane is rinsed ith transfer buffer for use, and the protein on the SDS-PAGE is transferred to the PVDF membrane. The SDS-PAGE layer covering on the PVDF membrane is placed in a protein transfer tank immersed with the transfer buffer with the current set at 100V. After 80 mins, the transfer is completed and then the PVDF membrane is taken out.
(§8) (4) after cutting the band having an appropriate molecular weight on the PVDF membrane, an appropriate amount of the blocking buffer is added to for blocking under room temperature to remove the non-specific binding. Then, evenly covering the diluted primary antibody on the PVDF membrane to react under room temperature for 2 hrs, and the excessive antibodies are removed by T-TBS. Further, evenly covering the diluted secondary antibody to react under room temperature for 1 hr and finally washing the excessive antibodies with T-TBS. The enhanced chemiluminescence (ECL) agent is added for reacting for 1-90 secs. After exposing to a x-ray film, the reaction is completed.

MMP-2 = assay: Western blotting of lung tissue, bleomycin mice; type: in vivo; conditions: increased by bleomycin; p<0.01
Experimental: as §6, §3, §4, §7, §8

TGF-β = TGF-β expression by western blotting, bleomycin mice; type: in vivo; conditions: lung fibrotic stage
Experimental: as §1, §2, §3, §4, §5

MMP-9 [3] = assay: OVA-induced MMP-9 expression in lung tissue, asthma mice; type: in vivo, BALB/c mice; conditions: nebulization, 28-day experiment; western blotting and zymography
Experimental: The male BALB/c mice (20-23 g) are injected (i.p.) with OVA (5 mM, 30 mins), sensitized with OVA on day 1 and day 8 via i.p injection and activated by 2 mg aluminum hydroxide to which 2 μg OVA is absorbed. […] The asthmatic animals are divided into 5 groups, wherein the control group is only administered with saline spray and the remaining experimental groups are firstly administered with 1% OVA spray and then administered with the sprays of the related complex salts respectively as shown in Table 4. The inhibition of the expression of OVA-induced MMP-9 in lung tissue of BALB/c mice is measured.

sGCα1 = assay: Western blotting of lung tissue, OVA-sensitized and -challenged mice; type: in vivo; conditions: nebulization, 28-day experiment
VCAM-1 = assay: as above; type: in vivo
From the text: (§9) Inhaled KMUP-1 can be absorbed into airway and blood flow to increase eNOS and down-regulate Rho-kinase expression by a cGMP-dependent pathway, protecting OVA-sensitized and challenged ICAM-1/VCAM-1 expression-associated cellular adhesion and migration activity of neutrophils.

ICAM-1 = assay: as above; type: in vivo
From the text: as §9

eNOS = assay: Immunostaining of lung sections, OVA mice; type: in vivo
From the text: OVA decreases vascular eNOS-immunostaining in lung sections, but KMUP-1 prevents this decrease quantitatively.

iNOS = assay: Western blotting of lung tissue, OVA-sensitized and -challenged mice; type: in vivo; conditions: nebulization, 28-day experiment
[4] = test system: inflammatory cells, vascular and bronchial wall; assay: Histological analyses of lung, OVA-exposed mice; type: in vivo
From the text: Histological analyses show the typical pathologic features of asthma in the OVA-exposed mice. Numerous inflammatory cells including eosinophils are infiltrated around the peri-vascular and peri-bronchial region, compared to control mice. […] After OVA challenge, marked increases in PA wall thickness % are found, compared to controls P<0.01).
OVA-sensitization increases the vascular and bronchial wall thickness, however, treatment with long-term KMUP-1 nebulization prevents these changes. […] MMP-9-immunostaining in peri-bronchial region and the reduced MMP-9-positive cells in bronchiole co-indicate the reduction of migration of infiltrated inflammatory cells.

[5] = day 7, dose 2.5 mg/kg (Combination: 2.5 mg/kg each drug)
[6] = day 28, dose 2.5 mg/kg (Combination: 2.5 mg/kg each drug)

CCC(C)(C)C(=O)O[C@H]1C[C@@H](C)C=C2C=C[C@H](C)[C@H](CC[C@@H](O)C[C@@H](O)CC(=O)O)[C@H]21.Cn1c(=O)c2c(ncn2CCN2CCN(c3ccccc3Cl)CC2)n(C)c1=O [KMUP-5]
Amount of WBC in lung lavage [1]: efficiently decrease
BA (basophil) [1, 5]: 0.02 ± 0.01
EO (eosinophil) [1, 5]: 0.06 ± 0.04
LY (lymphocyte) [1, 5]: 0.45 ± 0.17
MO (monocyte) [1, 5]: 0.03 ± 0.02
NE (neutrophil) [1, 5]: 0.18 ± 0.08
WBC total (white blood cell total count) [1, 5]: 0.74 ± 0.21
BA (basophil) [1, 6]: 0.01 ± 0.16
EO (eosinophil) [1, 6]: 0.05 ± 0.3
LY (lymphocyte) [1, 6]: 1.32 ± 1.59
MO (monocyte) [1, 6]: 0.06 ± 0.11
NE (neutrophil) [1, 6]: 0.14 ± 0.39
WBC total (white blood cell total count) [1, 6]: 1.58 ± 2.24
Expression of Smad 3 (Smad 3): inhibit
MMP-9 protein expression in lung tissue (western blotting) (MMP-9 [2]): mitigate
MMP-2 protein expression in lung tissue (western blotting) (MMP-2): mitigate
Expression of TGF-β (TGF-β): inhibit

Cn1c(=O)c2c(ncn2CCN2CCN(c3ccccc3Cl)CC2)n(C)c1=O [KMUP-1, 7-[2-[4-(2-chlorobenzene)piperazinyl]ethyl]-1,3-dimethylxanthine]
MMP-9 expression increased by OVA sensitization (MMP-9 [3]): significantly reduced
sGCα1 expression reduced by OVA sensitization (sGCα1): prevented
VCAM-1 expression (VCAM-1): suppressing
ICAM-1 expression (ICAM-1): suppressing
Vascular eNOS-immunostaining decreased by OVA (eNOS): prevents
Amount of WBC in lung lavage [1]: efficiently decrease
BA (basophil) ([1]; day 7, dose 1 mg/kg): 0.2 ± 0.01
EO (eosinophil) ([1]; day 7, dose 1 mg/kg): 0.44 ± 0.02
LY (lymphocyte) ([1]; day 7, dose 1 mg/kg): 1.83 ± 0.11
MO (monocyte) ([1]; day 7, dose 1 mg/kg): 0.12 ± 0.02
NE (neutrophil) ([1]; day 7, dose 1 mg/kg): 0.92 ± 0.13
WBC total (white blood cell total count) ([1]; day 7, dose 1 mg/kg): 3.51 ± 0.01
BA (basophil) [1, 5]: 0.11 ± 0.02
EO (eosinophil) [1, 5]: 0.17 ± 0.11
LY (lymphocyte) [1, 5]: 1.81 ± 0.09
MO (monocyte) [1, 5]: 0.07 ± 0.01
NE (neutrophil) [1, 5]: 0.91 ± 0.36
WBC total (white blood cell total count) [1, 5]: 3.2 ± 0.49
BA (basophil) ([1]; day 7, dose 5 mg/kg): 0.1 ± 0.02
EO (eosinophil) ([1]; day 7, dose 5 mg/kg): 0.16 ± 0.01
LY (lymphocyte) ([1]; day 7, dose 5 mg/kg): 1.76 ± 0.01
MO (monocyte) ([1]; day 7, dose 5 mg/kg): 0.07 ± 0.01
NE (neutrophil) ([1]; day 7, dose 5 mg/kg): 0.33 ± 0.14
WBC total (white blood cell total count) ([1]; day 7, dose 5 mg/kg): 2.43 ± 0.01
BA (basophil) ([1]; day 28, dose 1 mg/kg): 0.21 ± 0.06
EO (eosinophil) ([1]; day 28, dose 1 mg/kg): 0.42 ± 0.17
LY (lymphocyte) ([1]; day 28, dose 1 mg/kg): 1.89 ± 0.76
MO (monocyte) ([1]; day 28, dose 1 mg/kg): 0.2 ± 0.25
NE (neutrophil) ([1]; day 28, dose 1 mg/kg): 0.61 ± 0.11
WBC total (white blood cell total count) ([1]; day 28, dose 1 mg/kg): 3.41 ± 0.54
BA (basophil) [1, 6]: 0.11 ± 0.7
EO (eosinophil) [1, 6]: 0.17 ± 0.12
LY (lymphocyte) [1, 6]: 1.24 ± 0.43
MO (monocyte) [1, 6]: 0.07 ± 0.02
NE (neutrophil) [1, 6]: 0.36 ± 0.16
WBC total (white blood cell total count) [1, 6]: 1.95 ± 0.92
BA (basophil) ([1]; day 28, dose 5 mg/kg): 0.1 ± 0.02
EO (eosinophil) ([1]; day 28, dose 5 mg/kg): 0.16 ± 0.01
LY (lymphocyte) ([1]; day 28, dose 5 mg/kg): 1.1 ± 0.01
MO (monocyte) ([1]; day 28, dose 5 mg/kg): 0.07 ± 0.01
NE (neutrophil) ([1]; day 28, dose 5 mg/kg): 0.33 ± 0.14
WBC total (white blood cell total count) ([1]; day 28, dose 5 mg/kg): 1.8 ± 0.01
Expression of Smad 3 (Smad 3): inhibit
iNOS expression increased by OVA sensitization (iNOS): significantly reduced
MMP-9 protein expression in lung tissue (western blotting) (MMP-9 [2]): mitigate
MMP-2 protein expression in lung tissue (western blotting) (MMP-2): mitigate
Inflammatory cells in the peri-vascular and peri-bronchiolar regions ([4]; OVA-exposed mice): marked reductions
Vascular and bronchial wall thickness increased by OVA-sensitization ([4]; long-term nebulization): prevents
Expression of TGF-β (TGF-β): inhibit
